Source: ChEMBL document CHEMBL1155159, “Population pharmacokinetics of tafenoquine during malaria prophylaxis in healthy subjects” (Antimicrob Agents Chemother, 2007)

Columns and labels:
[1] = Tmax in fasted human; format: ADME, organism-based; conditions: in vivo
[2] = Trough concentration in po dosed human at 200 mg daily for 3 days followed by weekly dose of 200 mg for 6 months after 4 weeks; format: ADME, organism-based; conditions: in vivo, read-out: Cmin
[3] = Apparent volume of distribution with respect to the bioavailability in po dosed human receiving 400 mg cumulative dose and reporting drug-associated diarrhea and/or abdominal pain on day 2 at 200 mg daily for 3 days followed by weekly dose of 200 mg for 6 months; format: ADME, organism-based, Abdomen; conditions: in vivo, read-out: Vc/F
[4] = Half life po dosed human receiving 1000 mg cumulative dose and reporting drug-associated vomiting and/or nausea on day 3 at 200 mg daily for 3 days followed by weekly dose of 200 mg for 6 months; format: ADME, organism-based; conditions: in vivo
[5] = Trough concentration in po dosed human at 200 mg daily for 3 days followed by weekly dose of 200 mg for 6 months after 8 weeks; format: ADME, organism-based; conditions: in vivo, read-out: Cmin
[6] = Apparent clearance with respect to the bioavailability po dosed human receiving 400 mg cumulative dose and reporting drug-associated diarrhea and/or abdominal pain on day 2 at 200 mg daily for 3 days followed by weekly dose of 200 mg for 6 months; format: ADME, organism-based, Abdomen; conditions: in vivo
[7] = Apparent clearance with respect to the bioavailability in human at 600 mg cumulative dose with vomiting and/or nausea reported on day 3 at 200 mg daily for 3 days followed by weekly dose of 200 mg for 6 months, po; format: ADME, organism-based; conditions: in vivo
[8] = Clast in po dosed human […] and reporting drug-associated hyperesthesia on day 12 dosed at 200 mg daily for 3 days followed by weekly dose of 200 mg for 6 months; format: ADME, organism-based; conditions: in vivo, read-out: Clast
[9] = Apparent clearance with respect to bioavailability in po dosed human at 200 mg daily for 3 days followed by weekly dose of 200 mg for 6 months; format: ADME, organism-based; conditions: in vivo
[10] = Half life po dosed human receiving 1000 mg cumulative dose and reporting drug-associated depression on day 24 at 200 mg daily for 3 days followed by weekly dose of 200 mg for 6 months; format: ADME, organism-based; conditions: in vivo
[11] = Clast in po dosed human receiving 600 mg cumulative dose and reporting drug-associated vomiting and/or nausea reported on day 3 at 200 mg daily for 3 days followed by weekly dose of 200 mg for 6 months; format: ADME, organism-based; conditions: in vivo, read-out: Clast
[12] = Apparent volume of distribution with respect to the bioavailability in po dosed human receiving 600 mg cumulative dose and reporting drug-associated vomiting and/or nausea on day 3 at 200 mg daily for 3 days followed by weekly dose of 200 mg for 6 months; format: ADME, organism-based; conditions: in vivo, read-out: Vc/F
[13] = Clast in po dosed human receiving 1000 mg cumulative dose and reporting drug-associated abdominal pain on day 20 at 200 mg daily for 3 days followed by weekly dose of 200 mg for 6 months; format: ADME, organism-based, Abdomen; conditions: in vivo, read-out: Clast
[14] = Apparent clearance with respect to the bioavailability po dosed human receiving 1000 mg cumulative dose and reporting drug-associated depression on day 24 at 200 mg daily for 3 days followed by weekly dose of 200 mg for 6 months; format: ADME, organism-based; conditions: in vivo
[15] = Half life po dosed human receiving 400 mg cumulative dose and reporting drug-associated diarrhea and/or abdominal pain on day 2 at 200 mg daily for 3 days followed by weekly dose of 200 mg for 6 months; format: ADME, organism-based, Abdomen; conditions: in vivo
[16] = Half life po dosed human receiving 200 mg cumulative dose and reporting drug-associated insomnia on day 1 at 200 mg daily for 3 days followed by weekly dose of 200 mg for 6 months; format: ADME, organism-based; conditions: in vivo
[17] = Half life po dosed human receiving 1000 mg cumulative dose and reporting drug-associated abdominal pain on day 20 at 200 mg daily for 3 days followed by weekly dose of 200 mg for 6 months; format: ADME, organism-based, Abdomen; conditions: in vivo
[18] = Apparent clearance with respect to the bioavailability po dosed human receiving 800 mg cumulative dose and reporting drug-associated with hyperesthesia on day 12 at 200 mg daily for 3 days followed by weekly dose of 200 mg for 6 months; format: ADME, organism-based; conditions: in vivo
[19] = Apparent clearance with respect to the bioavailability po dosed human receiving 1000 mg cumulative dose and reporting drug-associated abdominal pain on day 20 at 200 mg daily for 3 days followed by weekly dose of 200 mg for 6 months; format: ADME, organism-based, Abdomen; conditions: in vivo
[20] = Trough concentration in po dosed human at 200 mg daily for 3 days followed by weekly dose of 200 mg for 6 months after 16 weeks; format: ADME, organism-based; conditions: in vivo, read-out: Cmin
[21] = Apparent clearance with respect to the bioavailability po dosed human receiving 200 mg cumulative dose and reporting drug-associated insomnia reported on day 1 at 200 mg daily for 3 days followed by weekly dose of 200 mg for 6 months; format: ADME, organism-based; conditions: in vivo
[22] = Apparent volume of distribution with respect to the bioavailability in po dosed human receiving 1000 mg cumulative dose and reporting drug-associated depression on day 24 at 200 mg daily for 3 days followed by weekly dose of 200 mg for 6 months; format: ADME, organism-based; conditions: in vivo, read-out: Vc/F
[23] = Clast in po dosed human receiving 1000 mg cumulative dose and reporting drug-associated depression reported on day 24 at 200 mg daily for 3 days followed by weekly dose of 200 mg for 6 months; format: ADME, organism-based; conditions: in vivo, read-out: Clast
[24] = Half life po dosed human receiving 800 mg cumulative dose and reporting drug-associated hyperesthesia on day 12 at 200 mg daily for 3 days followed by weekly dose of 200 mg for 6 months; format: ADME, organism-based; conditions: in vivo
[25] = Apparent volume of distribution with respect to the bioavailability in po dosed human receiving 400 mg cumulative dose and reporting drug-associated insomnia on day 1 at 200 mg daily for 3 days followed by weekly dose of 200 mg for 6 months; format: ADME, organism-based; conditions: in vivo, read-out: Vc/F
[26] = Apparent volume of distribution with respect to the bioavailability in po dosed human receiving 1000 mg cumulative dose and reporting drug-associated abdominal pain on day 20 at 200 mg daily for 3 days followed by weekly dose of 200 mg for 6 months; format: ADME, organism-based, Abdomen; conditions: in vivo, read-out: Vc/F
[27] = Half life in po dosed human at 200 mg daily for 3 days followed by weekly dose of 200 mg for 6 months; format: ADME, organism-based; conditions: in vivo
[28] = Apparent volume of distribution with respect to bioavailability in po dosed human at 200 mg daily for 3 days followed by weekly dose of 200 mg for 6 months; format: ADME, organism-based; conditions: in vivo, read-out: Vc/F
[29] = Apparent volume of distribution with respect to the bioavailability in po dosed human receiving 800 mg cumulative dose and reporting drug-associated hyperesthesia on day 12 at 200 mg daily for 3 days followed by weekly dose of 200 mg for 6 months; format: ADME, organism-based; conditions: in vivo, read-out: Vc/F
[30] = Tmax in human administered with standard high-fat meal; format: ADME, organism-based; conditions: in vivo

COc1cc(C)c2c(Oc3cccc(C(F)(F)F)c3)c(OC)cc(NC(C)CCCN)c2n1 (stereo not given) [TAFENOQUINE]
Tmax [1]: 0.775 days
concentration at 672 h [2]: 221 ng/mL
Vd/F [3]: 24.4 L/kg
half-life [4]: 9.8 days
concentration at 1344 h [5]: 221 ng/mL
CL/F [6]: 0.983 mL/min/kg
CL/F [7]: 1.28 mL/min/kg
concentration at 72 h [8]: 283 ng/mL
CL/F [9]: 72.8 mL/min
half-life [10]: 12 days
concentration at 72 h [11]: 315 ng/mL
Vd/F [12]: 26.1 L/kg
concentration at 72 h [13]: 253 ng/mL
CL/F [14]: 1.02 mL/min/kg
half-life [15]: 12 days
half-life [16]: 11.3 days
half-life [17]: 15.1 days
CL/F [18]: 0.767 mL/min/kg
CL/F [19]: 0.883 mL/min/kg
concentration at 2688 h [20]: 221 ng/mL
CL/F [21]: 0.983 mL/min/kg
Vd/F [22]: 25.1 L/kg
concentration at 72 h [23]: 275 ng/mL
half-life [24]: 13.1 days
Vd/F [25]: 23.2 L/kg
Vd/F [26]: 27.8 L/kg
half-life [27]: 12.7 days
Vd/F [28]: 1900 L
Vd/F [29]: 20.7 L/kg
Tmax [30]: 1.1 days
